Test results as given in patent US6737383B1, “Herbicidal oxadiazolidines” (priority 1999, dated 2004).

Columns and labels:
wild oat = assay: Test B pre/postemergence wild oat; type: in vivo, Avena fatua
Procedure, shortened: (§1)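 Test chemicals in a non-phytotoxic solvent mixture with surfactant were sprayed preemergence onto planted seeds and postemergence onto plants 2 to 18 cm tall (1- to 4-leaf stage). After twelve to sixteen days in a greenhouse, injury was visually rated against untreated controls from 0 (no effect) to 10 (complete control).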

rape = assay: Test B pre/postemergence rape; type: in vivo, Brassica napus
Procedure, shortened: as §1

purple nutsedge = assay: Test B pre/postemergence purple nutsedge; type: in vivo, Cyperus rotundus
Procedure, shortened: as §1

bedstraw = assay: Test B pre/postemergence bedstraw; type: in vivo, Galium aparine
Procedure, shortened: as §1

pigweed = assay: Test B pre/postemergence pigweed; type: in vivo, Amaranthus retroflexus
Procedure, shortened: as §1

bamyardgrass = assay: Test B flood test barnyardgrass; type: in vivo, Echinochloa crus-galli
Procedure, shortened: (§2)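 Each value is a visual injury score relative to controls, with 10 meaning complete control and 0 no effect. Evaluation took place twelve to sixteen days after the 2-leaf-stage plants were treated and kept in the greenhouse.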

morningglory = assay: Test B pre/postemergence morningglory; type: in vivo, Ipomoea hederacea
Procedure, shortened: as §1

cocklebur = assay: Test B pre/postemergence cocklebur; type: in vivo, Xanthium strumarium
Procedure, shortened: as §1

giant foxtail = assay: Test B pre/postemergence giant foxtail; type: in vivo, Setaria faberii
Procedure, shortened: as §1

surinam grass = assay: Test B pre/postemergence surinam grass; type: in vivo, Brachiaria decumbens
Procedure, shortened: as §1

smallflower flatsedge = assay: Test B flood test smallflower flatsedge; type: in vivo, Cyperus difformis
Procedure, shortened: as §2

duck salad = assay: Test B flood test duck salad; type: in vivo, Heteranthera limosa
Procedure, shortened: as §2

wheat = assay: Test B pre/postemergence wheat; type: in vivo, Triticum aestivum
Procedure, shortened: as §1

blackgrass = assay: Test B pre/postemergence blackgrass; type: in vivo, Alopecurus myosuroides
Procedure, shortened: as §1

soybean = assay: Test B pre/postemergence soybean; type: in vivo, Glycine max
Procedure, shortened: as §1

velvetleaf = assay: Test B pre/postemergence velvetleaf; type: in vivo, Abutilon theophrasti
Procedure, shortened: as §1

[1] = Postemergence, Rate 62 g/ha, scale 0 to 10, 0 is no effect, 10 is complete control
[2] = Postemergence, Rate 125 g/ha, scale of 0 to 10 where 0 is no effect and 10 is complete control
[3] = Preemergence, Rate 62 g/ha, scale 0 to 10 (0 no effect, 10 complete control)
[4] = Preemergence, Rate 125 g/ha, scale of 0 to 10 where 0 is no effect and 10 is complete control
[5] = Preemergence, Rate 250 g/ha, scale 0 to 10 (0 no effect, 10 complete control)
[6] = Preemergence, Rate 500 g/ha, scale of 0 to 10 where 0 is no effect and 10 is complete control
[7] = Postemergence, Rate 250 g/ha, scale of 0 to 10, 0 is no effect, 10 is complete control
[8] = Postemergence, Rate 500 g/ha, scale of 0 to 10 where 0 is no effect and 10 is complete control
[9] = Rate 62 g/ha, flood test species, Pre-emergence, visual evaluation after twelve to sixteen days
[10] = Rate 125 g/ha, under heading Pre-emergence, flood test species, visual evaluation after twelve to sixteen days
[11] = Rate 250 g/ha, Pre-emergence (flood test species), scale 0 to 10, 0 is no effect, 10 is complete control
[12] = Rate 500 g/ha, Pre-emergence section of Table B, 0 to 10 scale (0 no effect, 10 complete control)

Compound: CCOC(Cn1c(=O)on(C(=O)N(c2ccc(F)cc2)C(C)C)c1=O)OCC [Compound 629]
- Plant response rating, Wild oats (wild oat; [1]): 0
- Plant response rating, Wild oats (wild oat; [2]): 0
- Wild oats plant response rating (wild oat; [3]): 0
- Wild oats plant response rating (wild oat; [4]): 0
- Plant response rating, Wild oats (wild oat; [5]): 9
- Plant response rating, Wild oats (wild oat; [6]): 9
- Plant response rating, Rape (rape; [1]): 0
- Plant response rating, Rape (rape; [2]): 0
- Rape plant response rating (rape; [7]): 0
- Plant response rating, Rape (rape; [8]): 3
- Rape plant response rating (rape; [3]): 0
- Rape plant response rating (rape; [4]): 0
- Plant response rating, Rape (rape; [5]): 4
- Plant response rating, Rape (rape; [6]): 9
- Plant response rating, Nutsedge (purple nutsedge; [1]): 0
- Plant response rating, Nutsedge (purple nutsedge; [2]): 0
- Nutsedge plant response rating (purple nutsedge; [7]): 0
- Plant response rating, Nutsedge (purple nutsedge; [8]): 0
- Nutsedge plant response rating (purple nutsedge; [3]): 0
- Nutsedge plant response rating (purple nutsedge; [4]): 2
- Plant response rating, Nutsedge (purple nutsedge; [5]): 5
- Plant response rating, Nutsedge (purple nutsedge; [6]): 5
- Plant response rating, Bedstraw (bedstraw; [1]): 3
- Plant response rating, Bedstraw (bedstraw; [2]): 5
- Bedstraw plant response rating (bedstraw; [7]): 8
- Bedstraw plant response rating (bedstraw; [3]): 0
- Bedstraw plant response rating (bedstraw; [4]): 0
- Plant response rating, Bedstraw (bedstraw; [5]): 3
- Plant response rating, Bedstraw (bedstraw; [6]): 8
- Plant response rating, Redroot pigweed (pigweed; [1]): 0
- Redroot pigweed plant response rating (pigweed; [7]): 2
- Redroot pigweed plant response rating (pigweed; [3]): 2
- Redroot pigweed plant response rating (pigweed; [4]): 10
- Plant response rating, Redroot pigweed (pigweed; [5]): 10
- Plant response rating, Redroot pigweed (pigweed; [6]): 10
- Plant response rating, Barnyardgrass (0 to 10 scale, 0 is no effect, 10 is complete control) (bamyardgrass; [9]): 0
- Barnyardgrass plant response rating (0 to 10 scale, 0 is no effect, 10 is complete control) (bamyardgrass; [10]): 0
- Barnyardgrass plant response rating (bamyardgrass; [11]): 0
- Barnyardgrass plant response rating (bamyardgrass; [12]): 0
- Plant response rating, Morningglory (morningglory; [1]): 2
- Plant response rating, Morningglory (morningglory; [2]): 2
- Morningglory plant response rating (morningglory; [7]): 3
- Plant response rating, Morningglory (morningglory; [8]): 3
- Morningglory plant response rating (morningglory; [3]): 0
- Morningglory plant response rating (morningglory; [4]): 0
- Plant response rating, Morningglory (morningglory; [5]): 0
- Plant response rating, Morningglory (morningglory; [6]): 4
- Plant response rating, Cocklebur (cocklebur; [1]): 0
- Plant response rating, Cocklebur (cocklebur; [2]): 0
- Cocklebur plant response rating (cocklebur; [7]): 0
- Plant response rating, Cocklebur (cocklebur; [8]): 2
- Cocklebur plant response rating (cocklebur; [3]): 0
- Cocklebur plant response rating (cocklebur; [4]): 0
- Plant response rating, Cocklebur (cocklebur; [5]): 3
- Plant response rating, Cocklebur (cocklebur; [6]): 7
- Plant response rating, Giant foxtail (giant foxtail; [1]): 3
- Plant response rating, Giant foxtail (giant foxtail; [2]): 8
- Giant foxtail plant response rating (giant foxtail; [7]): 9
- Plant response rating, Giant foxtail (giant foxtail; [8]): 9
- Giant foxtail plant response rating (giant foxtail; [3]): 8
- Giant foxtail plant response rating (giant foxtail; [4]): 10
- Plant response rating, Giant foxtail (giant foxtail; [5]): 10
- Plant response rating, Giant foxtail (giant foxtail; [6]): 10
- Plant response rating, B. signalgrass (surinam grass; [1]): 0
- Plant response rating, B. signalgrass (surinam grass; [2]): 1
- B. signalgrass plant response rating (surinam grass; [7]): 3
- Plant response rating, B. signalgrass (surinam grass; [8]): 7
- B. signalgrass plant response rating (surinam grass; [3]): 0
- B. signalgrass plant response rating (surinam grass; [4]): 2
- Plant response rating, B. signalgrass (surinam grass; [5]): 5
- Plant response rating, B. signalgrass (surinam grass; [6]): 8
- Plant response rating, S. Flatsedge (0 to 10 scale, 0 is no effect, 10 is complete control) (smallflower flatsedge; [9]): 0
- S. Flatsedge plant response rating (0 to 10 scale, 0 is no effect, 10 is complete control) (smallflower flatsedge; [10]): 0
- S. Flatsedge plant response rating (smallflower flatsedge; [11]): 0
- S. Flatsedge plant response rating (smallflower flatsedge; [12]): 0
- Plant response rating, Ducksalad (0 to 10 scale, 0 is no effect, 10 is complete control) (duck salad; [9]): 0
- Ducksalad plant response rating (0 to 10 scale, 0 is no effect, 10 is complete control) (duck salad; [10]): 0
- Ducksalad plant response rating (duck salad; [11]): 0
- Ducksalad plant response rating (duck salad; [12]): 0
- Plant response rating, Wheat (wheat; [1]): 0
- Plant response rating, Wheat (wheat; [2]): 0
- Wheat plant response rating (wheat; [7]): 0
- Wheat plant response rating (wheat; [3]): 0
- Wheat plant response rating (wheat; [4]): 0
- Plant response rating, Wheat (wheat; [5]): 3
- Plant response rating, Wheat (wheat; [6]): 3
- Plant response rating, Blackgrass (blackgrass; [1]): 3
- Plant response rating, Blackgrass (blackgrass; [2]): 8
- Blackgrass plant response rating (blackgrass; [7]): 8
- Plant response rating, Blackgrass (blackgrass; [8]): 8
- Blackgrass plant response rating (blackgrass; [3]): 4
- Blackgrass plant response rating (blackgrass; [4]): 8
- Plant response rating, Blackgrass (blackgrass; [5]): 8
- Plant response rating, Blackgrass (blackgrass; [6]): 10
- Plant response rating, Soybean (soybean; [1]): 4
- Plant response rating, Soybean (soybean; [2]): 6
- Soybean plant response rating (soybean; [7]): 7
- Soybean plant response rating (soybean; [3]): 0
- Soybean plant response rating (soybean; [4]): 0
- Plant response rating, Soybean (soybean; [5]): 0
- Plant response rating, Soybean (soybean; [6]): 0
- Plant response rating, Velvetleaf (velvetleaf; [1]): 0
- Plant response rating, Velvetleaf (velvetleaf; [2]): 5
- Velvetleaf plant response rating (velvetleaf; [7]): 5
- Velvetleaf plant response rating (velvetleaf; [3]): 3
- Velvetleaf plant response rating (velvetleaf; [4]): 6
- Plant response rating, Velvetleaf (velvetleaf; [5]): 6
- Plant response rating, Velvetleaf (velvetleaf; [6]): 8
